Data taken from US20250346585A1 (Alexion Pharmaceuticals, Inc., priority 2022, published 2025).

target: Human complement C1s enzyme (Homo sapiens (Human), UniProt P09871); experiment: Human C1s enzyme assay; assay type: biochemical; settings: Human C1s enzyme assay of Example 3; read-out: IC50 (Stars)
Summary of the method: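 Purified serum-derived human C1s (1.16 nM final) preincubated 5 min at room temperature with compound in 50 mM Tris, 1 M NaCl, pH 7.5. Z-L-Lys-SBzl thioester substrate and DTNB added (100 μM each, final); A405 read every 30 s for 30 min. IC50 from nonlinear regression of reaction rates against compound concentration.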

Chain of Human complement C1s enzyme (P09871 438-688 limits assumed): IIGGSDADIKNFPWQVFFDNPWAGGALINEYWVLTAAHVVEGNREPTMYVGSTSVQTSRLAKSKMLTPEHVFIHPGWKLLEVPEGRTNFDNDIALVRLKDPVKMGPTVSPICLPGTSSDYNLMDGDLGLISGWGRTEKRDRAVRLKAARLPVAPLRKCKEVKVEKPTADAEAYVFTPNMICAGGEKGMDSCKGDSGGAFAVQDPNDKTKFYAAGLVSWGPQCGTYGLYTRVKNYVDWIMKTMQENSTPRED
Chain of Human complement C1s enzyme (P09871 16-437 partner limits assumed): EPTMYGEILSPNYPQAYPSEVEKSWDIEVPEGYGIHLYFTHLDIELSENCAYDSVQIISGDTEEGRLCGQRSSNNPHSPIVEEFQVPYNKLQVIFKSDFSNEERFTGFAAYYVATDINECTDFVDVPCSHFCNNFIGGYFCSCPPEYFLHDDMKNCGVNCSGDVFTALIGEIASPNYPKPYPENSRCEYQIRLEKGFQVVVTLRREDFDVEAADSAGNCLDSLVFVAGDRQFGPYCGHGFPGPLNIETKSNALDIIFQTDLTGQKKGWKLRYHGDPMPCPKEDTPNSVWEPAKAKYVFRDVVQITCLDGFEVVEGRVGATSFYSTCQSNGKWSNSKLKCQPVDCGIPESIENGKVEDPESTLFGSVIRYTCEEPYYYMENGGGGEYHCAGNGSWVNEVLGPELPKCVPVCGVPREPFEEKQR

IC50 [nM]	Compound
> 1000	C[C@@H](NC(=O)[C@@H]1CC2(CN1C(=O)CNC(=O)c1ccc3c(c1)-c1ccccc1C3(F)F)OCCO2)c1cc(-c2cocn2)cs1 [Compound 129, (8S)-7-{2-[(9,9-difluorofluoren-3-yl)formamido]acetyl}-N-[(1R)-1-[4-(1,3-oxazol-4-yl)thiophen-2-yl]ethyl]-1,4-dioxa-7-azaspiro[4.4]nonane-8-carboxamide]
< 100	C[C@@H](NC(=O)[C@@H]1CC2(CN1C(=O)CNC(=O)c1ccc3c(c1)-c1ccccc1C3(F)F)OCCO2)c1ccc(C(=N)N)s1 [Compound 56]

same assay, conditions: Human complement C1s enzyme 1.16 nM, substrate Z-L-Lys-SBzl 100 μM, assay of Example 3; read-out: IC50 (Stars)

IC50 [nM]	Compound
< 100	C[C@@H](NC(=O)[C@@H]1C[C@@H](OC(F)F)CN1C(=O)CN1Cc2cc(-c3ccccc3)ccc2C1=O)c1cc(C(=N)N)cs1 [Compound 385, (2S,4R)—N—((R)-1-(4-carbamimidoylthiophen-2-yl)ethyl)-4-(difluoromethoxy)-1-(2-(1-oxo-5-phenylisoindolin-2-yl)acetyl)pyrrolidine-2-carboxamide]
< 100	C[C@@H](NC(=O)[C@@H]1CC2(CN1C(=O)CNC(=O)c1ncc(-c3ccc(F)cc3F)cc1F)OCCO2)c1cc(C(=N)N)cs1 [Compound 356, (S)—N—((R)-1-(4-carbamimidoylthiophen-2-yl)ethyl)-7-((5-(2,4-difluorophenyl)-3-fluoropicolinoyl)glycyl)-1,4-dioxa-7-azaspiro[4.4]nonane-8-carboxamide]
< 100	CCCCCCOC(=O)/N=C(/N)c1csc([C@@H](C)NC(=O)[C@@H]2C[C@](F)(COC)CN2C(=O)CNC(=O)c2ccc3c(c2)-c2ccccc2C3(F)F)c1 [Compound 249, hexyl ((E)-amino(5-((R)-1-((2S,4R)-1-((9,9-difluoro-9H-fluorene-3-carbonyl)glycyl)-4-fluoro-4-(methoxymethyl)pyrrolidine-2-carboxamido)ethyl)thiophen-3-yl)methylene)carbamate]
< 100	N=C(N)c1csc(CNC(=O)[C@@H]2CC3(CNC3)CN2C(=O)CNC(=O)CCCOc2ccccc2)c1 [Compound 273, (S)—N-((4-carbamimidoylthiophen-2-yl)methyl)-6-((4-phenoxybutanoyl)glycyl)-2,6-diazaspiro[3.4]octane-7-carboxamide]
< 100	C[C@@H](NC(=O)[C@@H]1C[C@]2(C)C[C@@H]2N1C(=O)CNC(=O)c1ccc(Oc2ccccc2)cc1)c1cc(CC(=N)N)cs1 [Compound 276, (1S,3S,5S)—N—((R)-1-(4-(2-amino-2-iminoethyl)thiophen-2-yl)ethyl)-5-methyl-2-((4-phenoxybenzoyl)glycyl)-2-azabicyclo[3.1.0]hexane-3-carboxamide]
< 100	C[C@@H](NC(=O)[C@@H]1C[C@](F)(CF)CN1C(=O)CNC(=O)c1ccc2c(c1)sc1ccccc12)c1cc(C(=N)N)cs1 [Compound 349, (2S,4R)—N—((R)-1-(4-carbamimidoylthiophen-2-yl)ethyl)-1-((dibenzo[b,d]thiophene-3-carbonyl)glycyl)-4-fluoro-4-(fluoromethyl)pyrrolidine-2-carboxamide]
> 1000	CO[C@@H]1C[C@@H](C(=O)NCc2cc(NC(=O)CNC(=O)c3ccc(Oc4ccc(F)cc4)cc3)cs2)N(C(=O)CNC(=O)c2ccc(Oc3ccc(F)cc3)cc2)C1 [Compound 243, (2S,4R)-N-((4-(2-(4-(4-fluorophenoxy)benzamido)acetamido)thiophen-2-yl)methyl)-1-((4-(4-fluorophenoxy)benzoyl)glycyl)-4-methoxypyrrolidine-2-carboxamide]
< 100	N=C(N)c1csc([C@@H](NC(=O)[C@@H]2CC3(CN2C(=O)CNC(=O)c2ccc4c(c2)-c2ccccc2C4(F)F)OCCO3)C(F)(F)F)c1 (relative stereo) [Compound 275, (S)—N—((S*)-1-(4-carbamimidoylthiophen-2-yl)-2,2,2-trifluoroethyl)-7-((9,9-difluoro-9H-fluorene-3-carbonyl)glycyl)-1,4-dioxa-7-azaspiro[4.4]nonane-8-carboxamide]
